From ChEMBL document CHEMBL1201862, “PubChem BioAssay data set” (2004) come the findings set out here.

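Growth conditions: 96-well plates. Treatment: test compound, 48 hours, 5 concentrations. Analysis: linear interpolation between bracketing concentrations; unreached endpoints set to highest concentration. GI50 marks 50% less growth.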 Activity calls are given as the source filed them. Cut-off read from the data, not from the text of the source: active = GI50 up to about 1.1 µM and inactive = higher. Non-standard residues stand in square brackets, D forms with d. Residues, ends and D or L forms follow the SMILES beside them. *: point of attachment. Ac5c = NC1(C(=O)O)CCCC1; Boc = CC(C)(C)OC(=O)*; tBu = CC(C)(C)* A value given as a limit tells only on which side of the number the result lay.

Holding throughout (assay): NCI anticancer screen, dose series, 48 h
The test system of assay [1] is ACHN.
Assay [2] deals with CAKI-1.
Assay [3] relates to HCT-15.
The subject of assay [4] is HL-60.
The subject of assay [5] is HOP-62.
Assay [6] has as its system KM12.
Assay [7] deals with MDA-MB-231.
Assay [8] has as its system NCI-H226.
In assay [9] the test system is NCI-H522.
Assay [10] deals with OVCAR-3.
The subject of assay [11] is OVCAR-4.
Assay [12] deals with RPMI-8226.
The test system of assay [13] is SK-MEL-28.
Assay [14] concerns SK-MEL-5.
Assay [15] concerns SNB-19.
Assay [16] deals with T47D.
The test system of assay [17] is TK-10.
Assay [18] deals with UACC-62.
For assay [19], the system named is RXF 393.
In assay [20] the test system is BT-549.

Turning to `O=C1/C(=C\c2ccc([N+](=O)[O-])cc2)Sc2scc(-c3ccc(O)c(O)c3)[n+]21`, the GI50 in assay [1] was 6.82 µM (inactive); in assay [2], 2.77 µM (inactive); in [3], 2.33 µM; in assay [4] it was 2.37 µM (inactive); in assay [5] it was 13.4 µM (inactive); in [6], 10.9 µM (inactive). Besides, the GI50 in assay [7] was 10.9 µM (inactive); in assay [8] it was 17.8 µM (inactive); in assay [9], 1.76 µM (inactive); in [10], 2.51 µM (inactive); in assay [11], 10.6 µM (inactive); in assay [12], 2.55 µM (inactive). The GI50 was 12.3 µM (inactive) in assay [13]; 3.87 µM (inactive) in [14]; 21.6 µM (inactive) in [15]; 12.8 µM (inactive) in [16]; 2.26 µM (inactive) in [17]; 5.61 µM (inactive) in assay [18].

As to `CCOC(=O)Cc1nnc2n(-c3ccccc3)c(=O)c3ccccc3n12`, the GI50 in assay [1] was > 100 µM (inactive); in assay [2] it was 20.2 µM (inactive); in assay [3], over 100 µM; in assay [4] it was > 100 µM (inactive); in assay [5] it was 62.4 µM (inactive); in assay [6] it was > 100 µM (inactive). Besides, the GI50 in [7] is > 100 µM (inactive); in assay [8] it was > 100 µM (inactive); in [9] it was 77.4 µM (inactive); in [10], > 100 µM (inactive); in assay [11], > 100 µM (inactive); in [19] it was > 100 µM (inactive). Also, the GI50 in assay [13] is 55.7 µM (inactive); in assay [14], > 100 µM (inactive); in [15], 74.8 µM (inactive); in [16], > 100 µM (inactive); in assay [17], > 100 µM (inactive); in [18] it was 44.3 µM (inactive).

In the case of `CNc1ncnc2c1nnn2C`, the GI50 in assay [1] was > 100 µM (inactive); in assay [2], > 100 µM (inactive); in assay [3], over 100 µM; in assay [4], > 100 µM (inactive); in assay [5], > 100 µM (inactive); in assay [6] it was > 100 µM (inactive). Further, the GI50 in assay [8], in assay [9], in [10], in assay [11], in assay [12] and in assay [19] was > 100 µM (inactive) in each case. In addition, the GI50 in assay [13], in assay [14], in [15], in assay [16], in assay [17] and in assay [18] was > 100 µM (inactive) each time.

`O=S(=O)(/N=C1/S/C(=N\c2ccccc2)N(c2ccccc2)/C1=N/S(=O)(=O)c1ccccc1)c1ccccc1`: the GI50 was 19.5 µM (inactive) in assay [1]; 24.1 µM (inactive) in [20]; 14.8 µM in assay [3]; 22.6 µM (inactive) in assay [4]; 28.5 µM (inactive) in [5]; 19.4 µM (inactive) in assay [6]. Further, the GI50 was 13.7 µM (inactive) in assay [7]; 19.8 µM (inactive) in assay [8]; 17.7 µM (inactive) in assay [12]; 16.6 µM (inactive) in assay [13]; 16.3 µM (inactive) in [14]; 24 µM (inactive) in assay [15]. Moreover, the GI50 was 30.4 µM (inactive) in [17] and 17.2 µM (inactive) in assay [18].

For the compound `O=c1[nH]nc(Cc2ccc(Cl)cc2)n1/N=C/c1c[nH]c2ccccc12`, the GI50 in [1] was > 100 µM (inactive); in assay [2], > 100 µM (inactive); in [3], over 100 µM; in assay [4] it was > 100 µM (inactive); in [5] it was > 100 µM (inactive); in assay [6], > 100 µM (inactive). In addition, the GI50 was > 100 µM (inactive) in [7]; > 100 µM (inactive) in assay [8]; > 100 µM (inactive) in assay [9]; > 100 µM (inactive) in [10]; > 100 µM (inactive) in assay [11]; 26.3 µM (inactive) in assay [12]. Moreover, the GI50 in assay [13], in [14], in [15], in assay [16], in assay [17] and in assay [18] was > 100 µM (inactive) each time.

Regarding `CC(C)[Si](OC1=CCCCCC12C(=O)N(C)c1ccccc12)(C(C)C)C(C)C` (stereo not given), the GI50 in assay [1] was 16.8 µM (inactive); in [2], 16.5 µM (inactive); in [3] it was 17.6 µM; in assay [4], 17.1 µM (inactive); in assay [5], 21.6 µM (inactive); in assay [6] it was 18.5 µM (inactive). Moreover, the GI50 in assay [7] was 22.4 µM (inactive); in assay [8], 20.2 µM (inactive); in [9] it was 16.9 µM (inactive); in assay [10] it was 16.3 µM (inactive); in [11], 24.7 µM (inactive); in [12], 15.1 µM (inactive). Moreover, the GI50 was 8.77 µM (inactive) in [19]; 23.6 µM (inactive) in [13]; 17.5 µM (inactive) in assay [14]; 14.9 µM (inactive) in assay [15]; 2.88 µM (inactive) in assay [16]; 29 µM (inactive) in [17]. For the same compound, the GI50 in assay [18] was 18.2 µM (inactive).

Turning to `CCC1=CCC23C(=O)C=CC(=O)C2(C1)C(=O)c1cccc(OC)c1C3=O` (stereo not given), the GI50 in assay [1] was 14.3 µM (inactive); in assay [2] it was 13.1 µM (inactive); in [3] it was 18 µM; in [4] it was 2.73 µM (inactive); in assay [5] it was 22.7 µM (inactive); in assay [6] it was 20.9 µM (inactive). For the same compound, the GI50 in [7] was 15.1 µM (inactive); in assay [8], 22.1 µM (inactive); in assay [9] it was 31.8 µM (inactive); in assay [10], 10.1 µM (inactive); in assay [11], 12.7 µM (inactive); in assay [12] it was 4.41 µM (inactive). For the same compound, the GI50 in assay [19] is 6.38 µM (inactive); in assay [13], 18.2 µM (inactive); in assay [14], 16.8 µM (inactive); in [15] it was 23.8 µM (inactive); in assay [16], 0.409 µM (active); in assay [17] it was 19.1 µM (inactive). For the same compound, the GI50 in assay [18] is 15.8 µM (inactive).

On to `N=c1c2c(ncn1N)Oc1c(c(-c3ccccc3)nn1-c1ccccc1)C2c1ccc(Cl)cc1` (stereo not given), for which the GI50 in [1] was 2.04 µM (inactive); in assay [2] it was 2.1 µM (inactive); in assay [3], 1.31 µM; in [4], 0.408 µM (active); in assay [5], 1.66 µM (inactive); in [6] it was 1.6 µM (inactive). In addition, the GI50 in [7] was 2.63 µM (inactive); in assay [8], 1.98 µM (inactive); in assay [10], 1.56 µM (inactive); in assay [11], 1.56 µM (inactive); in assay [12], 2.35 µM (inactive); in [19] it was 1.47 µM (inactive). For the same compound, the GI50 is 1.76 µM (inactive) in [13]; 1.47 µM (inactive) in [15]; 2.3 µM (inactive) in assay [16]; 1.76 µM (inactive) in [17]; 1.54 µM (inactive) in [18].

For the compound `CC(C)[Si](OC1=C(C(=O)N(C)c2ccccc2Cl)CCCC1)(C(C)C)C(C)C`, the GI50 in assay [1] is 15.5 µM (inactive); in [2], 14.3 µM (inactive); in assay [3], 16.1 µM; in assay [5] it was 18 µM (inactive); in assay [6], 14.2 µM (inactive); in assay [7], 16.3 µM (inactive). The GI50 in assay [8] was 16 µM (inactive); in assay [9] it was 5.77 µM (inactive); in assay [10] it was 13.2 µM (inactive); in assay [11], 13.9 µM (inactive); in assay [12] it was 10.3 µM (inactive); in assay [19], 16.1 µM (inactive). Moreover, the GI50 was 19 µM (inactive) in [13]; 13.8 µM (inactive) in assay [14]; 12.8 µM (inactive) in [15]; 2.55 µM (inactive) in assay [16]; 15.1 µM (inactive) in assay [17]; 15.7 µM (inactive) in assay [18].

Turning to `C[C@@H]1OC2(O)[C@@H]3CCCN3C(=O)N(Cc3ccccc3)N2C1=O` (stereo not given in full), the GI50 in [1] is > 100 µM (inactive); in assay [2], > 100 µM (inactive); in assay [3], over 100 µM; in [4], > 100 µM (inactive); in assay [5] it was > 100 µM (inactive); in assay [6], > 100 µM (inactive). Moreover, the GI50 in [7], in assay [8], in assay [10], in [11], in [19] and in assay [13] was > 100 µM (inactive) each time. Moreover, the GI50 in assay [14], in assay [15], in assay [16], in assay [17] and in assay [18] was > 100 µM (inactive) each time.

For the compound `CC(OC(C)(C)C)C1NC(=O)C(CCCCNC(=O)OC(C)(C)C)NC(=O)C(Cc2c[nH]c3ccccc23)NC(=O)C(Cc2ccccc2)NC(=O)C2(CCCC2)NC(=O)C(Cc2ccccc2)NC1=O` (stereo not given) (cyclo([Ac5c]FWK(Boc)T(tBu)F); configuration not given here), the GI50 in [1] is 32.4 µM (inactive); in assay [2], 42.9 µM (inactive); in assay [3], over 100 µM; in assay [4], 17.5 µM (inactive); in assay [5], 49.4 µM (inactive); in assay [6] it was 29.4 µM (inactive). The GI50 in assay [7] is 17.5 µM (inactive); in [8], 21.5 µM (inactive); in assay [9], 21.4 µM (inactive); in assay [10], 26 µM (inactive); in assay [11] it was 49.9 µM (inactive); in assay [12] it was 10.7 µM (inactive). The GI50 in [19] is 37.5 µM (inactive); in [13] it was 22.3 µM (inactive); in assay [14] it was 15.9 µM (inactive); in [15], 34.2 µM (inactive); in assay [16] it was 10.4 µM (inactive); in [17], 24.8 µM (inactive). Besides, in [18], the GI50 was 21.6 µM (inactive).
